# Reference: patent publication US8088806B2 (Achillion Pharmaceuticals, Inc., priority 2005, dated 2012)
# System: HCV replicon
# Test: Replicon based assay of HCV replication inhibition (NPT ELISA)
# Type: cell-based, Hepatitis C virus
# Conditions: Hepatitis C virus, replicon based assay of HCV replication inhibition; Table IV; read-out: Activity
# Outline: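 NPT (neomycin phosphotransferase) content, proportional to replicon replication, quantified by capture ELISA on day four. Before that, replicon-bearing Huh-7 cells in G418-free screening medium were exposed three days at 37° C to compound, typically six doses from 10 to 0.03 micromolar, with equal DMSO across wells.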
row,Structure (SMILES),EC50 [µM]
1,"Cc1ccc(CCCCOc2ccc(Nc3nc(-c4ccc(CC(=O)O)s4)cs3)cc2C(F)(F)F)cc1 [compound 851, 2-(5-(2-(4-(4-p-tolylbutoxy)-3-(trifluoromethyl)phenylamino)thiazol-4-yl)thiophen-2-yl)acetic acid]",< 1
2,"Fc1cc(Nc2nc(-c3cccnc3)cs2)ccc1OCCCCc1cccs1 [compound 852, N-(4-(4-(thiophen-2-yl)butoxy)-3-fluorophenyl)-4-(pyridin-3-yl)thiazol-2-amine]",< 1
3,"Fc1cc(Nc2nc(-c3cccnc3)cs2)ccc1OCCCc1ccccc1 [compound 853, N-(4-(3-phenylpropoxy)-3-fluorophenyl)-4-(pyridin-3-yl)thiazol-2-amine]",< 1
4,"Cc1sc(Nc2ccc(OCCCCc3cccs3)c(F)c2)nc1-c1cccnc1 [compound 854, N-(4-(4-(thiophen-2-yl)butoxy)-3-fluorophenyl)-5-methyl-4-(pyridin-3-yl)thiazol-2-amine]",1 to 10
5,"Cc1sc(Nc2ccc(OCCCc3ccccc3)c(F)c2)nc1-c1cccnc1 [compound 855, N-(4-(3-phenylpropoxy)-3-fluorophenyl)-5-methyl-4-(pyridin-3-yl)thiazol-2-amine]",> 10
6,"Cc1sc(Nc2ccc(OCC3CCCCC3)c(C(F)(F)F)c2)nc1-c1cccnc1 [compound 856, N-(4-(cyclohexylmethoxy)-3-(trifluoromethyl)phenyl)-5-methyl-4-(pyridin-3-yl)thiazol-2-amine]",< 1
7,"CCCCCCCCOc1ccc(Nc2nc(-c3ccc(F)cc3)c(N)s2)cc1C(F)(F)F [compound 857, N^2-(3-(trifluoromethyl)-4-(octyloxy)phenyl)-4-(4-fluorophenyl)thiazole-2,5-diamine]",< 1
8,"Nc1sc(Nc2ccc(OCc3ccccc3)cc2)nc1-c1ccc(F)cc1 [compound 858, N^2-(4-(benzyloxy)phenyl)-4-(4-fluorophenyl)thiazole-2,5-diamine]",1 to 10
9,"CCCCCCCCOc1ccc(Nc2nc(C#N)c(N)s2)cc1C(F)(F)F [compound 859, 2-(3-(trifluoromethyl)-4-(octyloxy)phenylamino)-5-aminothiazole-4-carbonitrile]",< 1
10,"FC(F)(F)c1cc(Nc2nc(-c3cccnc3)cs2)ccc1OCCCc1ccco1 [compound 860, N-(4-(3-(furan-2-yl)propoxy)-3-(trifluoromethyl)phenyl)-4-(pyridin-3-yl)thiazol-2-amine]",< 1
11,"Fc1cc(Nc2nc(-c3cccnc3)cs2)ccc1OCCCc1ccco1 [compound 861, N-(4-(3-(furan-2-yl)propoxy)-3-fluorophenyl)-4-(pyridin-3-yl)thiazol-2-amine]",< 1
12,"CCCCCCCCN(C)c1ccc(Nc2nc(-c3cccnc3)c(C)s2)cc1C(F)(F)F [compound 862, 2-(trifluoromethyl)-N^1-methyl-N^4-(5-methyl-4-(pyridin-3-yl)thiazol-2-yl)-N^1-octylbenzene-1,4-diamine]",< 1
13,CCCCCCCN(C)Cc1ccc(Nc2nc(-c3cccnc3)c(C)s2)cc1C(F)(F)F [compound 863],1 to 10
14,"FC(F)(F)c1cc(Nc2nc(-c3cccnc3)cs2)ccc1OCCSc1ccccc1 [compound 864, N-(4-(2-(phenylthio)ethoxy)-3-(trifluoromethyl)phenyl)-4-(pyridin-3-yl)thiazol-2-amine]",< 1
15,"CCCCCCCCOc1ccc(Nc2nc(-c3cnc(NC(C)=O)[nH]3)cs2)cc1C(F)(F)F [compound 865, N-(5-(2-(3-(trifluoromethyl)-4-(octyloxy)phenylamino)thiazol-4-yl)-1H-imidazol-2-yl)acetamide]",< 1
16,"COc1ncc(-c2csc(Nc3ccc4ccn(Cc5ccc(F)cc5)c4c3)n2)cn1 [compound 866, 1-(4-fluorobenzyl)-N-(4-(2-methoxypyrimidin-5-yl)thiazol-2-yl)-1H-indol-6-amine]",< 1
17,"Fc1ccc(Cn2ccc3ccc(Nc4nc(-c5cccnc5)cs4)cc32)cc1 [compound 867, 1-(4-fluorobenzyl)-N-(4-(pyridin-3-yl)thiazol-2-yl)-1H-indol-6-amine]",< 1
18,"Fc1ccc(Cn2ccc3ccc(Nc4nc(-c5ccc(F)cc5)cs4)cc32)cc1 [compound 868, 1-(4-fluorobenzyl)-N-(4-(4-fluorophenyl)thiazol-2-yl)-1H-indol-6-amine]",< 1
19,"CCCCCCCCNc1ccc(-c2nc(-c3csc(Nc4cccnc4)n3)cs2)cc1C(F)(F)F [compound 869, N-(4-(2-(3-(trifluoromethyl)-4-(octylamino)phenyl)thiazol-4-yl)thiazol-2-yl)pyridin-3-amine]",< 1
20,Fc1ccc(Cn2ccc3cc(Nc4nc(-c5cccnc5)cs4)ccc32)cc1 [compound 870],< 1
21,"Fc1ccc(Cn2ccc3cc(Nc4nc(-c5ccc(F)cc5)cs4)ccc32)cc1 [compound 871, 1-(4-fluorobenzyl)-N-(4-(4-fluorophenyl)thiazol-2-yl)-1H-indol-5-amine]",> 10
22,"CCC(C)c1ccc(Nc2nc(-c3cccnc3)cs2)cc1 (centres unmarked) [compound 872, N-(4-sec-butylphenyl)-4-(pyridin-3-yl)thiazol-2-amine]",1 to 10
23,"NC(=O)c1ccc(Nc2nc(-c3cccnc3)cs2)cc1 [compound 873, 4-(4-(pyridin-3-yl)thiazol-2-ylamino)benzamide]",> 10
24,"FC(F)(F)c1cc(Nc2nc(-c3cccnc3)cs2)cc(C(F)(F)F)c1 [compound 874, N-(3,5-bis(trifluoromethyl)phenyl)-4-(pyridin-3-yl)thiazol-2-amine]",1 to 10

row,Structure (SMILES),EC50 [µM]
1,"Fc1ccc(Nc2nc(-c3cccnc3)cs2)cc1C(F)(F)F [compound 875, N-(4-fluoro-3-(trifluoromethyl)phenyl)-4-(pyridin-3-yl)thiazol-2-amine]",1 to 10
2,"NC(=O)c1cccc(Nc2nc(-c3cccnc3)cs2)c1 [compound 876, 3-(4-(pyridin-3-yl)thiazol-2-ylamino)benzamide]",> 10
3,"Cc1cc(OC(F)(F)F)ccc1Nc1nc(-c2cccnc2)cs1 [compound 877, N-(2-methyl-4-(trifluoromethoxy)phenyl)-4-(pyridin-3-yl)thiazol-2-amine]",> 10
4,"CC(=O)Nc1ccc(Nc2nc(-c3cccnc3)cs2)cc1 [compound 878, N-(4-(4-(pyridin-3-yl)thiazol-2-ylamino)phenyl)acetamide]",> 10
5,"Cc1ccc(Nc2nc(-c3cccnc3)cs2)cc1C(F)(F)F [compound 879, N-(3-(trifluoromethyl)-4-methylphenyl)-4-(pyridin-3-yl)thiazol-2-amine]",< 1
6,"N#Cc1ccc(Nc2nc(-c3cccnc3)cs2)cc1 [compound 880, 4-(4-(pyridin-3-yl)thiazol-2-ylamino)benzonitrile]",1 to 10
7,"FC(F)(F)c1cc(Nc2nc(-c3cccnc3)cs2)ccc1Cl [compound 881, N-(4-chloro-3-(trifluoromethyl)phenyl)-4-(pyridin-3-yl)thiazol-2-amine]",< 1
8,"N#Cc1ccc(Nc2nc(-c3cccnc3)cs2)cc1C(F)(F)F [compound 882, 4-(4-(pyridin-3-yl)thiazol-2-ylamino)-2-(trifluoromethyl)benzonitrile]",> 10
9,"Cc1cc(C)c(Nc2nc(-c3cccnc3)cs2)c(C)c1 [compound 883, N-mesityl-4-(pyridin-3-yl)thiazol-2-amine]",> 10
10,"Cc1ccc(Nc2nc(-c3cccnc3)cs2)cc1 [compound 884, 4-(pyridin-3-yl)-N-p-tolylthiazol-2-amine]",> 10
11,"FC(F)(F)Oc1ccc(Nc2nc(-c3cccnc3)cs2)cc1 [compound 885, 4-(pyridin-3-yl)-N-(4-(trifluoromethoxy)phenyl)thiazol-2-amine]",1 to 10
12,"COc1ccc(Nc2nc(-c3cccnc3)cs2)cc1 [compound 886, N-(4-methoxyphenyl)-4-(pyridin-3-yl)thiazol-2-amine]",> 10
13,"CC(C)c1ccc(Nc2nc(-c3cccnc3)cs2)cc1 [compound 887, N-(4-isopropylphenyl)-4-(pyridin-3-yl)thiazol-2-amine]",1 to 10
14,"Fc1ccc(C(F)(F)F)cc1Nc1nc(-c2cccnc2)cs1 [compound 888, N-(2-fluoro-5-(trifluoromethyl)phenyl)-4-(pyridin-3-yl)thiazol-2-amine]",1 to 10
15,"Fc1ccc(Nc2nc(-c3cccnc3)cs2)c(F)c1F [compound 889, N-(2,3,4-trifluorophenyl)-4-(pyridin-3-yl)thiazol-2-amine]",> 10
16,"Fc1c(Nc2nc(-c3cccnc3)cs2)cccc1C(F)(F)F [compound 890, N-(2-fluoro-3-(trifluoromethyl)phenyl)-4-(pyridin-3-yl)thiazol-2-amine]",1 to 10
17,"FC(F)(F)c1ccc(Nc2nc(-c3cccnc3)cs2)cc1 [compound 891, N-(4-(trifluoromethyl)phenyl)-4-(pyridin-3-yl)thiazol-2-amine]",1 to 10
18,"CC(C)(C)c1ccc(Nc2nc(-c3cccnc3)cs2)cc1 [compound 892, N-(4-tert-butylphenyl)-4-(pyridin-3-yl)thiazol-2-amine]",1 to 10
19,"CC(C)(C)c1cccc(Nc2nc(-c3cccnc3)cs2)c1 [compound 893, N-(3-tert-butylphenyl)-4-(pyridin-3-yl)thiazol-2-amine]",> 10
20,"CC(C)(C)c1cc(Nc2nc(-c3cccnc3)cs2)cc(C(C)(C)C)c1 [compound 894, N-(3,5-di-tert-butylphenyl)-4-(pyridin-3-yl)thiazol-2-amine]",< 1
21,"CC(C)(C)OC(=O)Nc1ccc(Nc2nc(-c3cccnc3)cs2)cc1 [compound 895, tert-butyl 4-(4-(pyridin-3-yl)thiazol-2-ylamino)phenylcarbamate]",> 10
22,"Clc1ccc(Oc2ccc(Nc3nc(-c4cccnc4)cs3)cc2)cc1 [compound 896, N-(4-(4-chlorophenoxy)phenyl)-4-(pyridin-3-yl)thiazol-2-amine]",< 1
23,"Cc1ccc(Oc2ccc(Nc3nc(-c4cccnc4)cs3)cc2)cc1 [compound 897, N-(4-(p-tolyloxy)phenyl)-4-(pyridin-3-yl)thiazol-2-amine]",< 1
